Experimental data taken from patent publication US5512588A, “Furylthiazoles and their use as H2 - receptor antagonists and antimicrobials” (Fujisawa Pharmaceutical Co., Ltd., priority 1991, dated 1996).

Legend:
HCl-aspirin ulcer = assay: Test D (Inhibition of HCl-aspirin ulcer); type: in vivo, male Sprague-Dawley rats; details: length of ulcers vs control; test compound 32 mg/kg orally 30 minutes before aspirin 200 mg/kg in 0.2N HCl; rats
Protocol: Test D (Inhibition of HCl-aspirin ulcer):
Seven male Sprague-Dawley rats, aged 6 weeks and weighing about 200 g were used per group for the study on HCl-aspirin ulcer after the fast for 24 hours. Each of the test compounds (32 mg/kg) suspended in 0.1% methylcellulose solution was administered orally 30 minutes before aspirin administration. Aspirin, suspended in 0.1% methylcellulose solution containing 0.2N HCl, was administered orally at a dose of 200 mg/kg/10 ml. One hour later, the animals were sacrificed and their stomachs were removed. The stomach was then fixed with 2% formalin. The length of ulcers was measured for each animal, and percentage of inhibition was calculated by comparing the mean length of ulcers (mm) in the test animals with that in the control animals.

[1] = test system: Campylobacter pyloridis 8008; assay: Test C (Anti-microbial activity), agar dilution method; type: cell-based; details: Helicobacter pylori, 72 h, Brucella agar plus 5% lysed horse blood, 37° C. for 3 days, 10% CO2, 10^4 cfu/ml
Protocol: Test C (Anti-microbial activity):
In vitro antimicrobial activity was determined by the agar dilution method. Test strain was precultured in Brucella broth Agar containing 5% horse serum at 37° C. for 3 days, and 10^4 cfu/ml were inoculated with a multipoint replicater onto Brucella agar plus 5% lysed horse blood plate containing serial 2-fold dilutions of each drug at 37° C. for 3 days. Incubation was carried out in an atmosphere of 10% CO2. MIC was read after incubation as the lowest drug concentration that inhibited macroscopic colonial growth.

[2] = test system: histamine-stimulated gastric secretion; assay: Test B (Gastric secretion from lumen perfused stomach in anesthetized rats); type: in vivo, Male Sprague-Dawley rats; details: maximal inhibition of acid output, histamine 3 mg/kg/hr i.v., test compound 1 mg/kg intravenously
Protocol: Test B (Gastric secretion from lumen perfused stomach in anesthetized rats):
Male Sprague-Dawley rats weighing about 250 g were used. Rats were deprived of food but allowed free access to water for 24 hours. The animals were anesthetized with 1.25 g/kg urethane intraperitoneally. The abdomen was opened and the gastric lumen was perfured with saline throughout the experiment. The perfusate was titrated by an autotitrator with 25 mM sodium hydroxide as a titrant. Gastric secretion was stimulated by intravenous infusion with histamine (3 mg/kg/hr). After reaching plateau, test compound (1 mg/kg) was given intravenously. Drug effect was expressed as maximal inhibition by acid output.

H2 -receptor = assay: Test A (H2 -receptor antagonism in isolated guinea-pig atrium); details: inhibition of histamine (1×10^-6 g/ml)-induced increase in beating rate, test compound 1×10^-6 g/ml, 30 minutes, 30°C
Protocol: Test A (H2 -receptor antagonism in isolated guinea-pig atrium):
The atrial strip isolated from guinea-pig was suspended under an initial tension 0.3 to 0.6 g in an organ bath containing Tyrode solution at 30°C., aerated 95% O2 -5% CO2 gas. The beating rate and amplitude of contraction of the atrium were recorded by means of a transducer and a polygraph. Histamine (1×10^-6 g/ml) was added to the bathing fluid and the increase in beating rate after dosing was measured. Addition of test compounds (1×10^-6 g/ml) was made 30 minutes after washing out histamine. Inhibitory effect of test compound was calculated by comparing histamine-induced increases in beating rate before and 30 minutes after dosing with the test compounds.

SMILES | MIC [1] [µg/mL] | other results
CCCCNC(N)=Nc1nc(-c2ccc(CNC(C)=O)o2)cs1 [Test Compound (a), 4-(5-Acetylaminomethylfuran-2-yl)-2-(amino)(n-butylamino)methyleneamino!thiazole] | – | Inhibition (%) (HCl-aspirin ulcer): 86.9%
CC(=O)NCc1ccc(-c2csc(N=C(N)NCCc3ccccn3)n2)o1 [Test Compound (d), 4-(5-Acetylaminomethylfuran-2-yl)-2-(amino)-2-(2-pyridyl)ethylamino!methyleneamino!thiazole] | 0.78 | –
COCCNC(N)=Nc1nc(-c2ccc(CNC(C)=O)o2)cs1 [Test Compound (c), 4-(5-Acetylaminomethylfuran-2-yl)-2-(amino)-(2-methoxyethylamino)methyleneamino!thiazole] | – | Inhibition (%) [2]: 69%
CCCCCCNC(N)=Nc1nc(-c2ccc(CNC(C)=O)o2)cs1 [Test Compound (b), 4-(5-Acetylaminomethylfuran-2-yl)-2-(amino)(n-hexylamino)methyleneamino!thiazole] | 0.1 | H2 Antagonism (%) (H2 -receptor): 78.5%
C=CCNC(N)=Nc1nc(-c2ccc(CNC(C)=O)o2)cs1 [Test Compound (e)] | 0.78 | –
